From patent US9732075B2, “Benzimidazole-proline derivatives” (IDORSIA PHARMACEUTICALS LTD, priority 2012, dated 2017)

Assays:
human orexin-1 receptor = human orexin-1 receptor (Homo sapiens (Human), UniProt O43613); assay: In vitro assay: intracellular calcium measurements (FLIPR), antagonistic activity; format: cell-based; settings: CHO cells expressing human orexin-1 receptor, orexin-A agonist, geometric mean, read-out: IC50 Ox1
Protocol: (§1) In Vitro Assay: Intracellular Calcium Measurements:
(§2) Chinese hamster ovary (CHO) cells expressing the human orexin-1 receptor and the human orexin-2 receptor, respectively, are grown in culture medium (Ham F-12 with L-Glutamine) containing 300 μg/ml G418, 100 U/ml penicillin, 100 μg/ml streptomycin and 10% heat inactivated fetal calf serum (FCS). The cells are seeded at 20,000 cells/well into 384-well black clear bottom sterile plates (Greiner). The seeded plates are incubated overnight at 37° C. in 5% CO2.
(§3) Human orexin-A as an agonist is prepared as 1 mM stock solution in MeOH: water (1:1), diluted in HBSS containing 0.1% bovine serum albumin (BSA), NaHCO3: 0.375 g/l and 20 mM HEPES for use in the assay at a final concentration of 3 nM.
(§4) Antagonists are prepared as 10 mM stock solution in DMSO, then diluted in 384-well plates using DMSO followed by a transfer of the dilutions into in HBSS containing 0.1% bovine serum albumin (BSA), NaHCO3: 0.375 g/l and 20 mM HEPES. On the day of the assay, 50 μl of staining buffer (HBSS containing 1% FCS, 20 mM HEPES, NaHCO3: 0.375 g/l, 5 mM probenecid (Sigma) and […] of the fluorescent calcium indicator fluo-4 AM (1 mM stock solution in DMSO, containing 10% pluronic) is added to each well. The 384-well cell-plates are incubated for 50 min at 37° C. in 5% CO2 followed by equilibration at RT for 30 min before measurement.
(§5) Within the Fluorescent Imaging Plate Reader (FLIPR Tetra, Molecular Devices), antagonists are added to the plate in a volume of 10 μl/well, incubated for 120 min and finally 10 μl/well of agonist is added. Fluorescence is measured for each well at 1 second intervals, and the height of each fluorescence peak is compared to the height of the fluorescence peak induced by an approximate EC70 (for example 5 nM) of orexin-A with vehicle in place of antagonist. The IC50 value (the concentration of compound needed to inhibit 50% of the agonistic response) is determined and may be normalized using the obtained IC50 value of a on-plate reference compound. Optimized conditions are achieved by adjustment of pipetting speed and cell splitting regime. The calculated IC50 values may fluctuate depending on the daily cellular assay performance. Fluctuations of this kind are known to those skilled in the art. Average IC50 values from several measurements are given as geometric mean values.

human orexin-2 receptor = human orexin-2 receptor (Homo sapiens (Human), UniProt O43614); assay: as above; format: cell-based; settings: CHO cells expressing human orexin-2 receptor, orexin-A agonist, geometric mean, read-out: IC50 Ox2
human orexin-2 receptor, sequence (O43614 whole entry): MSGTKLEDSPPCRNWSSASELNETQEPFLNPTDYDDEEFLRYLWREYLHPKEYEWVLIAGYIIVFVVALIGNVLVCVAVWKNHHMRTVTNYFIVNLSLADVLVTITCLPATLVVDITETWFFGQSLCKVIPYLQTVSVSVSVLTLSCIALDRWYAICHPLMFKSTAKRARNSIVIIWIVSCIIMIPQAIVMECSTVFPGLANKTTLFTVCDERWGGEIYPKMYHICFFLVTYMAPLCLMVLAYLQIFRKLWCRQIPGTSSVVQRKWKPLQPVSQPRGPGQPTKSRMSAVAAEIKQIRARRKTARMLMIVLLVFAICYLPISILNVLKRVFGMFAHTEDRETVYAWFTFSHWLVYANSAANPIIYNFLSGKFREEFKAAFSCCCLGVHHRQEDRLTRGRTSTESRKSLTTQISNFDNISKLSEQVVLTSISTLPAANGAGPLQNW
Protocol: as §1, §2, §3, §4, §5

human orexin-1 receptor, sequence (O43613 whole entry): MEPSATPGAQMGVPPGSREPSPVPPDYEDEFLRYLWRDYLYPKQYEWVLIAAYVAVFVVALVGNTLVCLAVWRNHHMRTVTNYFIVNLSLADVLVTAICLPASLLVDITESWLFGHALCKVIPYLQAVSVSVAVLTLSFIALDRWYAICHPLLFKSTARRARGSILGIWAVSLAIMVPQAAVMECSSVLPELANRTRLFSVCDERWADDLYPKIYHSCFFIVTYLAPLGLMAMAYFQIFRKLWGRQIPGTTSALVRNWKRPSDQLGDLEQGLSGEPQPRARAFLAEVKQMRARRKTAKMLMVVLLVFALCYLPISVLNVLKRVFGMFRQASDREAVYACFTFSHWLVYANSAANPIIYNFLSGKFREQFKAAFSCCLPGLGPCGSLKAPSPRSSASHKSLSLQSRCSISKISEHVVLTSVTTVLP

| SMILES | IC50 (human orexin-1 receptor) [nM] | IC50 (human orexin-2 receptor) [nM] |
| --- | --- | --- |
| Cc1ccc(-c2sccc2C(=O)N2CC[C@H](C)[C@H]2c2nc3c(C(F)(F)F)cccc3[nH]2)cc1C [Ex. 4.160] | 2 | 27 |
| COc1ccc2nc([C@@H]3CCCN3C(=O)c3cnc(C)nc3-c3cccc(Cl)c3)[nH]c2c1 [Ex. 1.29] | 369 | 182 |
| C=C1CC(c2nc3cc(SC)ccc3[nH]2)N(C(=O)c2cc(C)sc2-c2ccc(C)c(C)c2)C1 (stereo not drawn) [Ex. 6.73] | 10 | 4 |
| Cc1nc(C(=O)N2CCCC2c2nc3c(CO)cccc3[nH]2)c(-c2ccccc2)s1 (stereo not drawn) [Ex. 1.128] | 1480 | 331 |
| Cc1nc(C(=O)N2CCCC2c2nc3cc(C)c(C)cc3[nH]2)c(-c2cccc(Cl)c2)s1 (stereo not drawn) [Ex. 1.95] | 18 | 15 |
| Cc1nc(C(=O)N2CC[C@H](C)[C@H]2c2nc3cc(C)c(C)cc3[nH]2)c(-c2cc(F)cc(F)c2)s1 [Ex. 4.89] | 3 | 2170 |
| COc1cc2nc([C@@H]3[C@@H](C)CCN3C(=O)c3ccccc3-n3nccn3)[nH]c2cc1OC [Ex. 4.49] | 221 | 533 |
| C=C1C[C@@H](c2nc3cccc(C)c3[nH]2)N(C(=O)c2nc(C)sc2-c2cccc(Br)c2)C1 [Ex. 6.104] | 13 | 0.8 |
| C=C1C[C@@H](c2nc3cc(Cl)c(C)cc3[nH]2)N(C(=O)c2cc(C)ccc2-n2nccn2)C1 [Ex. 6.65] | 34 | 3 |
| C=C1C[C@@H](c2nc3cc(OC)ccc3[nH]2)N(C(=O)c2nc(C)sc2-c2cccc(Cl)c2Cl)C1 [Ex. 6.23] | 452 | 67 |
| CSc1ccc2[nH]c([C@@H]3CCCN3C(=O)c3nc(C)sc3-c3cccc(Cl)c3)nc2c1 [Ex. 1.15] | 67 | 45 |
| C=C1CC(c2nc3c(C)cccc3[nH]2)N(C(=O)c2nc(C3CC3)sc2-c2cccc(C)c2)C1 (stereo not drawn) [Ex. 6.94] | 2 | 1 |
| C=C1CC(c2nc3cc(OC)ccc3[nH]2)N(C(=O)c2cc(C)sc2-c2ccc(C)c(C)c2)C1 (racemic) [Ex. 6.71] | 24 | 2 |
| C=C1C[C@@H](c2nc3cccc(C)c3[nH]2)N(C(=O)c2nc(C)sc2-c2ccc(Br)cc2)C1 [Ex. 6.100] | 55 | 4 |
| Cc1ccc(-n2nccn2)c(C(=O)N2CC[C@H](C)[C@H]2c2nc3c(C(F)(F)F)cccc3[nH]2)c1 [Ex. 4.34] | 37 | 1880 |
| COc1cccc(-c2ccc(C)cc2C(=O)N2CCC[C@@]2(C)c2nc3cc(C(F)(F)F)c(Cl)cc3[nH]2)c1 [Ex. 5.149] | 21 | 26 |
| CSc1cccc2nc([C@@H]3CCCN3C(=O)c3cncnc3-c3ccc(C)cc3)[nH]c12 [Ex. 1.78] | 102 | 408 |
| COc1ccc(-n2nccn2)c(C(=O)N2CCC[C@@]2(C)c2nc3c(C)c(Cl)ccc3n2C)c1 [Ex. 7.23] | 1 | 3 |
| Cc1ccc(-n2nccn2)c(C(=O)N2CCC[C@@]2(C)c2nc3c(Cl)cccc3[nH]2)c1 [Ex. 5.26] | 39 | 197 |
| Cc1c(Cl)ccc2[nH]c([C@]3(C)CCCN3C(=O)c3nc(-c4cccc(F)c4)sc3-c3ccc(F)cc3)nc12 [Ex. 5.234] | 8 | 131 |
| C=C1C[C@@H](c2nc3ccc(Cl)c(C)c3[nH]2)N(C(=O)c2nc(C)sc2-c2ccc(F)c(Br)c2)C1 [Ex. 6.125] | 2 | 0.8 |
| C=C1C[C@@H](c2nc3cc(C(C)(C)C)ccc3[nH]2)N(C(=O)c2cc(OC)c(OC)cc2-n2nccn2)C1 [Ex. 6.170] | 18 | 15 |
| CSc1cccc2nc([C@@H]3CCCN3C(=O)c3nc(C4CC4)sc3-c3ccc(F)cc3)[nH]c12 [Ex. 1.70] | 26 | 26 |
| CSc1ccc2nc([C@@H]3CCCN3C(=O)c3cnc(C)nc3-c3cccc(Cl)c3)[nH]c2c1 [Ex. 1.51] | 66 | 21 |
| Cc1nc(C(=O)N2CCC[C@@]2(C)c2nc3c(F)c(F)ccc3[nH]2)c(-c2ccccc2)s1 [Ex. 5.206] | 19 | 117 |
| CSc1cccc2nc([C@@H]3CCCN3C(=O)c3cc(F)ccc3-n3nccn3)[nH]c12 [Ex. 1.163] | 167 | 17 |
| Cc1ccc2[nH]c([C@]3(C)CCCN3C(=O)c3ccccc3-c3ccccc3F)nc2c1C [Ex. 5.121] | 56 | 43 |
| C=C1CN(C(=O)c2nc(C)sc2-c2ccc(C)c(C)c2)C(C)(c2nc3cc(OC)ccc3[nH]2)C1 (racemic) [Ex. 6.145] | 21 | 75 |
| Cc1c(Cl)ccc2nc([C@]3(C)CCCN3C(=O)c3cc(F)ccc3-c3ccccn3)[nH]c12 [Ex. 5.219] | 19 | 72 |

Continued, values first:

| IC50 (human orexin-1 receptor) [nM] | IC50 (human orexin-2 receptor) [nM] | SMILES |
| --- | --- | --- |
| 415 | 52 | COc1ccc2nc([C@@H]3CCCN3C(=O)c3nc(C)sc3-c3ccc(C)cc3)[nH]c2c1 [Ex. 1.22] |
| 24 | 58 | Cc1ccc(C(=O)N2CCC[C@@]2(C)c2nc3cc(F)c(Br)cc3[nH]2)c(-n2nccn2)c1 [Ex. 5.130] |
| 5 | 1 | C=C1C[C@@H](c2nc3cc(Cl)c(C)cc3[nH]2)N(C(=O)c2nc(C)sc2-c2ccc(C)c(C)c2)C1 [Ex. 6.55] |
| 3 | 6 | CO[C@H]1CN(C(=O)c2cc(Cl)ccc2-n2nccn2)C(C)(c2nc3c(C)c(Cl)ccc3[nH]2)C1 (stereo partly drawn) [Ex. 3.44] |
| 1040 | 35 | COc1ccc2nc([C@@H]3CCCN3C(=O)c3ccccc3-n3nccn3)[nH]c2c1 [Ex. 1.27] |
| 501 | 109 | CSc1ccc2nc([C@@H]3CCCN3C(=O)c3nccnc3-c3cc(C)cc(F)c3)[nH]c2c1 [Ex. 1.45] |
| 2 | 40 | Cc1nc(C(=O)N2CC[C@H](C)[C@H]2c2nc3c(C(F)(F)F)cccc3[nH]2)c(-c2ccc(C)c(C)c2)s1 [Ex. 4.152] |
| 1 | 19 | Cc1ccc(-c2sccc2C(=O)N2CC[C@H](C)[C@H]2c2nc3c(Cl)cccc3[nH]2)cc1C [Ex. 4.127] |
| 14 | 1670 | Cc1nc(C(=O)N2CC[C@H](C)[C@H]2c2nc3c(CO)cccc3[nH]2)c(-c2cccc(Cl)c2)s1 [Ex. 4.17] |
| 113 | 202 | COc1ccc(-n2nccn2)c(C(=O)N2CCC[C@@]2(C)c2nc3cc(C)c(C)cc3[nH]2)c1F [Ex. 5.55] |
| 136 | 56 | Cc1nc(C(=O)N2CCCC2c2nc3c4c(ccc3[nH]2)OCCO4)c(-c2cccc(Cl)c2)s1 (racemic) [Ex. 1.117] |
| 0.6 | 404 | Cc1nc(C(=O)N2CC[C@H](C)[C@H]2c2nc3c(C)c(Cl)ccc3[nH]2)c(-c2ccc(F)cc2)s1 [Ex. 4.70] |
| 12 | 9 | COc1cccc(-c2sc(C)nc2C(=O)N2CCC[C@H]2c2nc3cccc(SC)c3[nH]2)c1 [Ex. 1.63] |
| 8 | 1350 | Cc1ccc2[nH]c([C@@H]3[C@@H](C)CCN3C(=O)c3nc(C)sc3-c3cccc(Cl)c3)nc2c1 [Ex. 4.3] |
| 6 | 1 | C=C1C[C@@H](c2nc3cc(C)c(C)cc3[nH]2)N(C(=O)c2nc(C)sc2-c2ccc(C)c(C)c2)C1 [Ex. 6.56] |
| 5 | 6 | CCn1c([C@]2(C)CCCN2C(=O)c2nc(C)sc2-c2cccc(Cl)c2)nc2c(C)cccc21 [Ex. 7.6] |
| 903 | 23 | COc1ccc2nc([C@@H]3CCCN3C(=O)c3cc(C#N)ccc3-n3nccn3)[nH]c2c1 [Ex. 1.159] |
| 14 | 80 | Cc1nc(C(=O)N2CCC[C@@]2(C)c2nc3cc(OC(F)(F)F)ccc3[nH]2)c(-c2ccc(C)c(C)c2)s1 [Ex. 5.245] |
| 95 | 162 | CSc1cccc2nc([C@@H]3CCCN3C(=O)c3nc(C)sc3-c3cc(F)cc(F)c3)[nH]c12 [Ex. 1.71] |
| 10 | 103 | Cc1ccc(-c2ccccn2)c(C(=O)N2CC[C@H](C)[C@H]2c2nc3cc(Cl)c(C)cc3[nH]2)c1 [Ex. 4.102] |
| 56 | 23 | CSc1cccc2nc([C@@H]3CCCN3C(=O)c3cc(C)ccc3-n3nccn3)[nH]c12 [Ex. 1.5] |
| 106 | 9 | C=C1C[C@@H](c2nc3cc(OC)ccc3[nH]2)N(C(=O)c2ccsc2-c2ccc(C)c(C)c2)C1 [Ex. 6.39] |
